In patent publication US20190284136A1, “INDOLINE DERIVATIVES” (ViiV HEALTHCARE UK LIMITED, priority 2016, published 2019):

These molecules were tested on HIV (assay: Table 1 IC50 of the examples (assay method not given; patent concerns inhibiting HIV replication)). Conditions: Human immunodeficiency virus 1.
Assay type: cell-based

| Structure (SMILES) | IC50 [nM] |
| --- | --- |
| COc1cc(Cl)cc(C(=O)N2CCc3c2cc(C)c([C@H](OC(C)(C)C)C(=O)O)c3-c2cc(F)c3c(c2C)CCCO3)c1 (atropisomer, axis not shown) [Example 117] | 16 |
| Cc1cccc(C(=O)N2CCc3c2cc(C)c([C@H](OC(C)(C)C)C(=O)O)c3-c2cc(F)c3c(c2C)CCCO3)c1F (atropisomer, axis not shown) [Example 118, (S)-2-(tert-Butoxy)-2-((R)-1-(2-fluoro-3-methylbenzoyl)-4-(8-fluoro-5-methylchroman-6-yl)-6-methylindolin-5-yl)acetic acid] | 5 |
| Cc1cc2c(c(-c3cc(F)c4c(c3C)CCCO4)c1[C@H](OC(C)(C)C)C(=O)O)CCN2C(=O)c1ccc(F)c(Cl)c1 (atropisomer, axis not shown) [Example 119, (S)-2-(tert-Butoxy)-2-((R)-1-(3-chloro-4-fluorobenzoyl)-4-(8-fluoro-5-methylchroman-6-yl)-6-methylindolin-5-yl)acetic acid] | 3 |
| Cc1cc2c(c(-c3cc(F)c4c(c3C)CCCO4)c1[C@H](OC(C)(C)C)C(=O)O)CCN2C(=O)C(C)(C)C (atropisomer, axis not shown) [Example 120, (S)-2-(tert-Butoxy)-2-((R)-4-(8-fluoro-5-methylchroman-6-yl)-6-methyl-1-pivaloylindolin-5-yl)acetic acid] | 91 |
| Cc1cccc(C(=O)N2CCc3c2cc(C)c([C@H](OC(C)(C)C)C(=O)O)c3-c2cc(F)c3c(c2C)CCCO3)c1C (atropisomer, axis not shown) [Example 121, (S)-2-(tert-Butoxy)-2-((R)-1-(2,3-dimethylbenzoyl)-4-(8-fluoro-5-methylchroman-6-yl)-6-methylindolin-5-yl)acetic acid] | 7 |
| Cc1cc2c(c(-c3cc(F)c4c(c3C)CCCO4)c1[C@H](OC(C)(C)C)C(=O)O)CCN2C(=O)c1ccc2c(c1)CCC2 (atropisomer, axis not shown) [Example 122, (S)-2-(tert-Butoxy)-2-((R)-1-(2,3-dihydro-1H-indene-5-carbonyl)-4-(8-fluoro-5-methylchroman-6-yl)-6-methylindolin-5-yl)acetic acid] | 17 |
| COc1cc(C(=O)N2CCc3c2cc(C)c([C@H](OC(C)(C)C)C(=O)O)c3-c2cc(F)c3c(c2C)CCCO3)ccc1Cl (atropisomer, axis not shown) [Example 123, (S)-2-(tert-Butoxy)-2-((R)-1-(4-chloro-3-methoxybenzoyl)-4-(8-fluoro-5-methylchroman-6-yl)-6-methylindolin-5-yl)acetic acid] | 3 |
| COc1ccc(C(=O)N2CCc3c2cc(C)c([C@H](OC(C)(C)C)C(=O)O)c3-c2cc(F)c3c(c2C)CCCO3)cc1Cl (atropisomer, axis not shown) [Example 124, (S)-2-(tert-Butoxy)-2-((R)-1-(3-chloro-4-methoxybenzoyl)-4-(8-fluoro-5-methylchroman-6-yl)-6-methylindolin-5-yl)acetic acid] | 3 |
| Cc1cc2c(c(-c3cc(F)c4c(c3C)CCCO4)c1[C@H](OC(C)(C)C)C(=O)O)CCN2C(=O)c1ccccc1C(F)(F)F (atropisomer, axis not shown) [Example 125, (S)-2-(tert-Butoxy)-2-((R)-4-(8-fluoro-5-methylchroman-6-yl)-6-methyl-1-(2-(trifluoromethyl)benzoyl)indolin-5-yl)acetic acid] | 5 |
| COc1ccc(C(=O)N2CCc3c2cc(C)c([C@H](OC(C)(C)C)C(=O)O)c3-c2cc(F)c3c(c2C)CCCO3)c(OC)c1OC (atropisomer, axis not shown) [Example 126, (S)-2-(tert-Butoxy)-2-((R)-4-(8-fluoro-5-methylchroman-6-yl)-6-methyl-1-(2,3,4-trimethoxybenzoyl)indolin-5-yl)acetic acid] | 5 |
| Cc1cc2c(c(-c3cc(F)c4c(c3C)CCCO4)c1[C@H](OC(C)(C)C)C(=O)O)CCN2C(=O)c1ccc2c(c1)CCO2 (atropisomer, axis not shown) [Example 127, (S)-2-(tert-Butoxy)-2-((R)-1-(2,3-dihydrobenzofuran-5-carbonyl)-4-(8-fluoro-5-methylchroman-6-yl)-6-methylindolin-5-yl)acetic acid] | 2 |
| COc1ccc(C(=O)N2CCc3c2cc(C)c([C@H](OC(C)(C)C)C(=O)O)c3-c2cc(F)c3c(c2C)CCCO3)c(Cl)c1 (atropisomer, axis not shown) [Example 128, (S)-2-(tert-Butoxy)-2-((R)-1-(2-chloro-4-methoxybenzoyl)-4-(8-fluoro-5-methylchroman-6-yl)-6-methylindolin-5-yl)acetic acid] | 5 |
| Cc1cc2c(c(-c3cc(F)c4c(c3C)CCCO4)c1[C@H](OC(C)(C)C)C(=O)O)CCN2C(=O)c1cc2ccccc2[nH]1 (atropisomer, axis not shown) [Example 129, (S)-2-(tert-Butoxy)-2-((R)-4-(8-fluoro-5-methylchroman-6-yl)-1-(1H-indole-2-carbonyl)-6-methylindolin-5-yl)acetic acid] | 22 |
| Cc1cc2c(c(-c3cc(F)c4c(c3C)CCCO4)c1[C@H](OC(C)(C)C)C(=O)O)CCN2C(=O)C1=CCCCC1 (atropisomer, axis not shown) [Example 130, (S)-2-(tert-Butoxy)-2-((R)-1-(cyclohex-1-ene-1-carbonyl)-4-(8-fluoro-5-methylchroman-6-yl)-6-methylindolin-5-yl)acetic acid] | 4 |
| Cc1cc2c(c(-c3cc(F)c4c(c3C)CCCO4)c1[C@H](OC(C)(C)C)C(=O)O)CCN2C(=O)c1ccco1 (atropisomer, axis not shown) [Example 131, (S)-2-(tert-Butoxy)-2-((R)-4-(8-fluoro-5-methylchroman-6-yl)-1-(furan-2-carbonyl)-6-methylindolin-5-yl)acetic acid] | 110 |
| Cc1cc2c(c(-c3cc(F)c4c(c3C)CCCO4)c1[C@H](OC(C)(C)C)C(=O)O)CCN2C(=O)C1CC1 (atropisomer, axis not shown) [Example 132, (S)-2-(tert-Butoxy)-2-((R)-1-(cyclopropanecarbonyl)-4-(8-fluoro-5-methylchroman-6-yl)-6-methylindolin-5-yl)acetic acid] | 414 |
| Cc1cc2c(c(-c3cc(F)c4c(c3C)CCCO4)c1[C@H](OC(C)(C)C)C(=O)O)CCN2C(=O)c1cc(C(F)(F)F)cc(C(F)(F)F)c1 (atropisomer, axis not shown) [Example 133, (S)-2-((R)-1-(3,5-Bis(trifluoromethyl)benzoyl)-4-(8-fluoro-5-methylchroman-6-yl)-6-methylindolin-5-yl)-2-(tert-butoxy)acetic acid] | 67 |
| Cc1cccc(C(=O)N2CCc3c2cc(C)c([C@H](OC(C)(C)C)C(=O)O)c3-c2cc(F)c3c(c2C)CCCO3)c1Cl (atropisomer, axis not shown) [Example 135, (S)-2-(tert-Butoxy)-2-((R)-1-(2-chloro-3-methylbenzoyl)-4-(8-fluoro-5-methylchroman-6-yl)-6-methylindolin-5-yl)acetic acid] | 4 |
| Cc1cc2c(c(-c3cc(F)c4c(c3C)CCCO4)c1[C@H](OC(C)(C)C)C(=O)O)CCN2C(=O)c1ccc(C(F)(F)F)cc1F (atropisomer, axis not shown) [Example 136, (S)-2-(tert-Butoxy)-2-((R)-1-(2-fluoro-4-(trifluoromethyl)benzoyl)-4-(8-fluoro-5-methylchroman-6-yl)-6-methylindolin-5-yl)acetic acid] | 41 |
| Cc1ccc(C(=O)N2CCc3c2cc(C)c([C@H](OC(C)(C)C)C(=O)O)c3-c2cc(F)c3c(c2C)CCCO3)c(Cl)c1 (atropisomer, axis not shown) [Example 137, (S)-2-(tert-Butoxy)-2-((R)-1-(2-chloro-4-methylbenzoyl)-4-(8-fluoro-5-methylchroman-6-yl)-6-methylindolin-5-yl)acetic acid] | 4 |
| Cc1cc2c(c(-c3cc(F)c4c(c3C)CCCO4)c1[C@H](OC(C)(C)C)C(=O)O)CCN2C(=O)c1ccc(Cl)cc1F (atropisomer, axis not shown) [Example 138, (S)-2-(tert-Butoxy)-2-((R)-1-(4-chloro-2-fluorobenzoyl)-4-(8-fluoro-5-methylchroman-6-yl)-6-methylindolin-5-yl)acetic acid] | 5 |
| Cc1ccc(C(=O)N2CCc3c2cc(C)c([C@H](OC(C)(C)C)C(=O)O)c3-c2cc(F)c3c(c2C)CCCO3)c(F)c1 (atropisomer, axis not shown) [Example 139, (S)-2-(tert-Butoxy)-2-((R)-1-(2-fluoro-4-methylbenzoyl)-4-(8-fluoro-5-methylchroman-6-yl)-6-methylindolin-5-yl)acetic acid] | 6 |
| Cc1cc2c(c(-c3cc(F)c4c(c3C)CCCO4)c1[C@H](OC(C)(C)C)C(=O)O)CCN2C(=O)c1ccc(C(F)(F)F)c(F)c1 (atropisomer, axis not shown) [Example 140, (S)-2-(tert-Butoxy)-2-((R)-1-(3-fluoro-4-(trifluoromethyl)benzoyl)-4-(8-fluoro-5-methylchroman-6-yl)-6-methylindolin-5-yl)acetic acid] | 14 |
| Cc1cc(Cl)cc(C(=O)N2CCc3c2cc(C)c([C@H](OC(C)(C)C)C(=O)O)c3-c2cc(F)c3c(c2C)CCCO3)c1 (atropisomer, axis not shown) [Example 141, (S)-2-(tert-Butoxy)-2-((R)-1-(3-chloro-5-methylbenzoyl)-4-(8-fluoro-5-methylchroman-6-yl)-6-methylindolin-5-yl)acetic acid] | 6 |
| COc1cc(C(=O)N2CCc3c2cc(C)c([C@H](OC(C)(C)C)C(=O)O)c3-c2cc(F)c3c(c2C)CCCO3)ccc1F (atropisomer, axis not shown) [Example 142, (S)-2-(tert-Butoxy)-2-((R)-1-(4-fluoro-3-methoxybenzoyl)-4-(8-fluoro-5-methylchroman-6-yl)-6-methylindolin-5-yl)acetic acid] | 2 |
| Cc1cc2c(c(-c3cc(F)c4c(c3C)CCCO4)c1[C@H](OC(C)(C)C)C(=O)O)CCN2C(=O)c1ccc(C(F)(F)F)cc1Cl (atropisomer, axis not shown) [Example 144, (S)-2-(tert-Butoxy)-2-((R)-1-(2-chloro-4-(trifluoromethyl)benzoyl)-4-(8-fluoro-5-methylchroman-6-yl)-6-methylindolin-5-yl)acetic acid] | 26 |
